Experimental data taken from patent publication US20090155784A1, “ASSESSMENT OF ASTHMA AND ALLERGEN-DEPENDENT GENE EXPRESSION” (Wyeth, priority 2007, published 2009).

Tested on: PBMCs from healthy volunteers
Experiment: HG-U133A baseline gene expression in PBMCs of healthy volunteers (HV), cPLA2 inhibitor in the absence of allergen (no AG)
Format: cell-based, human
Text: PBMCs were stimulated in vitro with a cocktail containing 4 different allergens from house dust mite, ragweed and cat. Recombinant allergens, Der p1, Der f2, Fel d1 (Indoor Biotech, Charlottesville, Va.) and natural ragweed allergen (Allergy Lab, Seattle, Wash.) were selected and screened for endotoxin contamination (LAL Endotoxin Test, Catalog #HIT302, sensitivity, 0.0001 Eu/ml, Cell Sciences, Canton, Mass.). The sensitivity of the subjects was unknown but the allergens were chosen based on the estimate that 80% of allergic individuals are believed to react to one or more of these allergens. Culture medium contained RPMI-1640 (Sigma) with 10% heat inactivated FCS (Sigma St. Louis, Mo.) and 100 unit/mL Penicillin and […] Streptomycin and 0.292 mg/mL Glutamine (GIBCO RL Invitrogen, Carlsbad, Calif.). The final allergen cocktail concentrations in culture medium were: Der p1 and Der f2 (dust mite), 1 mg/ml; Fel d1 (cat), 1.25 mg/ml; ragweed, 125 mg/ml. The total level of endotoxin contamination in culture medium was 0.057 Eu/ml. The cPLA2 inhibitor 4-{3-[1-benzhydryl-5-chloro-2-(2-{[(2,6-dimethylbenzyl)sulfonyl]amino}ethyl)-1H-indol-3-yl]propyl}benzoic acid was used at a concentration of 0.3 μM/ml. Zileuton, a 5-lipoxygenase inhibitor, was added at a concentration of 5 μM. The inhibitory activity of both the cPLA2 inhibitor and Zileuton samples were verified in a human whole blood assay. After 6 days in culture approximately 200 μL of supernatant was removed using an 8-channel pipettor without disturbing the cell pellet and placed into a collection plate for cytokine ELISA assays. To the remaining cell pellet 100 μL of RLT lysis buffer containing 1% beta-mercaptoethanol was added and snap frozen for RNA purification.
RNA was purified using QIA shredders and Rneasy mini kits (Qiagen, Valencia, Calif.). PBMC pellets frozen in RLT lysis buffer containing 1% β-mercaptoethanol were thawed and processed for total RNA isolation using the QIA shredder and RNeasy mini kit. A phenol:chloroform extraction was then performed, and the RNA was repurified using the RNeasy mini kit reagents. Eluted RNA was quantified using a Spectramax96 well plate UV reader (Molecular Devices, Sunnyvale, Calif., USA) monitoring A260/280 OD values. The quality of each RNA sample was assessed by capillary electrophoresis alongside an RNA molecular weight ladder on the Agilent 2100 bioanalyzer (Agilent Technologies, Palo Alto, Calif., USA). RNA samples were assigned quality values of intact (distinct 18S and 28S bands); partially degraded (discernible 18S and 28S bands with presence of low molecular weight bands) or completely degraded (no discernible 18S and 28S bands).
Labeled targets for oligonucleotide arrays were prepared using a modification of the procedure described by Lockhart et al. (Lockhart (1996) Nat. Biotechnol. 14:1675-80). Labeled targets were hybridized to the HG-U133A Affymetrix GeneChip Array as described in the Affymetrix technical manual. Eleven biotinylated control transcripts ranging in abundance from 3 parts per million (ppm) to 100 ppm were spiked into each sample to function as a standard curve (Hill (2001) Genome Biol. 2:RESEARCH0055). GeneChip MAS 5.0 software was used to evaluate the hybridization intensity, compute the signal value for each probe set and make an absent/present call.
GeneChips were required to pass the pre-set quality control criteria that the RNA quality metric required a 5′:3′ ratio. Two asthma subjects were excluded from the study due to failure to meet the RNA quality metric and 2 GeneChips from the group treated with cPLA2a inhibitor were excluded for the same reason. The signal value for each probe set was converted into a frequency value representative of the number of transcripts present in 10^6 transcripts by reference to the standard curve (Hill (2001) Genome Biol. 2:RESEARCH0055). […]

[1] = healthy population, no allergen

## Cc1cccc(C)c1CS(=O)(=O)NCCc1c(CCCc2ccc(C(=O)O)cc2)c2cc(Cl)ccc2n1C(c1ccccc1)c1ccccc1 [cPLA2 inhibitor, 4-{3-[1-benzhydryl-5-chloro-2-(2-{[(2,6-dimethylbenzyl)sulfonyl]amino}ethyl)-1H-indol-3-yl]propyl}benzoic acid]
[1]
  probes significantly downregulated in the presence of cPLA2 inhibition: 43 probes
  probes significantly upregulated in the presence of cPLA2 inhibition: 36 probes
Probeset 44673_at, gene SN
  Fold Change cPLA2 inhibitor vs. no AG HV: 1.425 fold
Probeset 58696_at, gene RRP41
  Fold Change cPLA2 inhibitor vs. no AG HV: 1.202 fold
Probeset 200886_s_at, gene PGAM1
  Fold Change cPLA2 inhibitor vs. no AG HV: −1.153 fold
Probeset 200887_s_at, gene STAT1
  Fold Change cPLA2 inhibitor vs. no AG HV: 1.158 fold
Probeset 200923_at, gene LGALS3BP
  Fold Change cPLA2 inhibitor vs. no AG HV: 1.268 fold
Probeset 200976_s_at, gene TAX1BP1
  Fold Change cPLA2 inhibitor vs. no AG HV: 1.159 fold
Probeset 201061_s_at, gene STOM
  Fold Change cPLA2 inhibitor vs. no AG HV: 1.242 fold
Probeset 201090_x_at, gene K-ALPHA-1
  Fold Change cPLA2 inhibitor vs. no AG HV: 1.122 fold
Probeset 201118_at, gene PGD
  Fold Change cPLA2 inhibitor vs. no AG HV: 1.22 fold
Probeset 201298_s_at, gene C2ORF6
  Fold Change cPLA2 inhibitor vs. no AG HV: 1.106 fold
Probeset 201463_s_at, gene TALDO1
  Fold Change cPLA2 inhibitor vs. no AG HV: 1.153 fold
Probeset 201649_at, gene UBE2L6
  Fold Change cPLA2 inhibitor vs. no AG HV: 1.19 fold
Probeset 201785_at, gene RNASE1
  Fold Change cPLA2 inhibitor vs. no AG HV: −3.602 fold
Probeset 201945_at, gene FURIN
  Fold Change cPLA2 inhibitor vs. no AG HV: 1.348 fold
Probeset 202068_s_at, gene LDLR
  Fold Change cPLA2 inhibitor vs. no AG HV: 1.388 fold
Probeset 202193_at, gene LIMK2
  Fold Change cPLA2 inhibitor vs. no AG HV: 1.457 fold
Probeset 202245_at, gene LSS
  Fold Change cPLA2 inhibitor vs. no AG HV: 1.264 fold
Probeset 202269_x_at, gene GBP1
  Fold Change cPLA2 inhibitor vs. no AG HV: 1.475 fold
Probeset 202307_s_at, gene TAP1
  Fold Change cPLA2 inhibitor vs. no AG HV: 1.313 fold
Probeset 202308_at, gene SREBF1
  Fold Change cPLA2 inhibitor vs. no AG HV: 1.436 fold
Probeset 202510_s_at, gene TNFAIP2
  Fold Change cPLA2 inhibitor vs. no AG HV: 1.355 fold
Probeset 202531_at, gene IRF1
  Fold Change cPLA2 inhibitor vs. no AG HV: 1.259 fold
Probeset 202626_s_at, gene LYN
  Fold Change cPLA2 inhibitor vs. no AG HV: 1.54 fold
Probeset 202841_x_at, gene OGFR
  Fold Change cPLA2 inhibitor vs. no AG HV: 1.239 fold
Probeset 202847_at, gene PCK2
  Fold Change cPLA2 inhibitor vs. no AG HV: 1.344 fold
Probeset 202859_x_at, gene IL8
  Fold Change cPLA2 inhibitor vs. no AG HV: 2.42 fold
Probeset 202917_s_at, gene S100A8
  Fold Change cPLA2 inhibitor vs. no AG HV: 1.662 fold
Probeset 203922_s_at, gene CYBB
  Fold Change cPLA2 inhibitor vs. no AG HV: 1.52 fold
Probeset 203923_s_at, gene CYBB
  Fold Change cPLA2 inhibitor vs. no AG HV: 1.214 fold
Probeset 204034_at, gene ETHE1
  Fold Change cPLA2 inhibitor vs. no AG HV: 1.212 fold
Probeset 204224_s_at, gene GCH1
  Fold Change cPLA2 inhibitor vs. no AG HV: 1.48 fold
Probeset 204326_x_at, gene UNK_NM_002450
  Fold Change cPLA2 inhibitor vs. no AG HV: 2.024 fold
Probeset 204745_x_at, gene MT1G
  Fold Change cPLA2 inhibitor vs. no AG HV: 2.215 fold
Probeset 204858_s_at, gene ECGF1
  Fold Change cPLA2 inhibitor vs. no AG HV: 1.292 fold
Probeset 204929_s_at, gene VAMP5
  Fold Change cPLA2 inhibitor vs. no AG HV: 1.472 fold
Probeset 205322_s_at, gene MTF1
  Fold Change cPLA2 inhibitor vs. no AG HV: 1.553 fold
Probeset 205872_x_at, gene UNK_NM_022359
  Fold Change cPLA2 inhibitor vs. no AG HV: 1.629 fold
Probeset 205992_s_at, gene IL15
  Fold Change cPLA2 inhibitor vs. no AG HV: 1.522 fold
Probeset 206025_s_at, gene TNFAIP6
  Fold Change cPLA2 inhibitor vs. no AG HV: 1.671 fold
Probeset 206026_s_at, gene TNFAIP6
  Fold Change cPLA2 inhibitor vs. no AG HV: 1.866 fold
Probeset 206637_at, gene GPR105
  Fold Change cPLA2 inhibitor vs. no AG HV: 1.797 fold
Probeset 207091_at, gene P2RX7
  Fold Change cPLA2 inhibitor vs. no AG HV: 1.272 fold
Probeset 207277_at, gene CD209
  Fold Change cPLA2 inhibitor vs. no AG HV: 1.574 fold
Probeset 207533_at, gene CCL1
  Fold Change cPLA2 inhibitor vs. no AG HV: 2.229 fold
Probeset 207697_x_at, gene LILRB2
  Fold Change cPLA2 inhibitor vs. no AG HV: 1.484 fold
Probeset 208071_s_at, gene LAIR1
  Fold Change cPLA2 inhibitor vs. no AG HV: 1.82 fold
Probeset 208373_s_at, gene P2RY6
  Fold Change cPLA2 inhibitor vs. no AG HV: 1.593 fold
Probeset 208671_at, gene TDE2
  Fold Change cPLA2 inhibitor vs. no AG HV: −1.137 fold
Probeset 208699_x_at, gene TKT
  Fold Change cPLA2 inhibitor vs. no AG HV: 1.243 fold
